Reference: patent publication US5013741A, “N-[substituted alkylidene]-1,2,3,4-tetrahydro-9-acridinamines useful for enhancing the cholinergic function in a mammal” (priority 1988, dated 1991)

What was measured:
[1] = system: Scopolamine Induced Memory Deficit; test: Dark Avoidance Assay (scopolamine induced memory deficit reversal); assay type: in vivo; details: s.c., mice, retest after 24 hours
Method: In this assay mice are tested for their ability to remember an unpleasant stimulus for a period of 24 hours. A mouse is placed in a chamber that contains a dark compartment; a strong incadescent light drives it to the dark compartment,where an electric shock is administered through metal plates on the floor. The animal is removed from the testing apparatus and tested again, 24 hours later, for the ability to remember the electric shock.
If scopolamine, an anticholinergic that is known to cause memory impairment, is administered before an animal's initial exposure to the test chamber, the animal re-enters the dark compartment shortly after being placed in the test chamber 24 hours later. This effect of scopolamine is blocked by an active test compound, resulting in a greater interval before re-entry into the dark compartment.
The results for an active compound are expressed as the percent of a group of animals in which the effect of scopolamine is blocked, as manifested by an increased interval between being placed in the test chamber and re-entering the dark compartment.

acetylcholinesterase = test: Acetylcholinesterase Inhibition Assay (photometric method of Ellman et al.); assay type: biochemical
Sequence of acetylcholinesterase (P22303 32-614): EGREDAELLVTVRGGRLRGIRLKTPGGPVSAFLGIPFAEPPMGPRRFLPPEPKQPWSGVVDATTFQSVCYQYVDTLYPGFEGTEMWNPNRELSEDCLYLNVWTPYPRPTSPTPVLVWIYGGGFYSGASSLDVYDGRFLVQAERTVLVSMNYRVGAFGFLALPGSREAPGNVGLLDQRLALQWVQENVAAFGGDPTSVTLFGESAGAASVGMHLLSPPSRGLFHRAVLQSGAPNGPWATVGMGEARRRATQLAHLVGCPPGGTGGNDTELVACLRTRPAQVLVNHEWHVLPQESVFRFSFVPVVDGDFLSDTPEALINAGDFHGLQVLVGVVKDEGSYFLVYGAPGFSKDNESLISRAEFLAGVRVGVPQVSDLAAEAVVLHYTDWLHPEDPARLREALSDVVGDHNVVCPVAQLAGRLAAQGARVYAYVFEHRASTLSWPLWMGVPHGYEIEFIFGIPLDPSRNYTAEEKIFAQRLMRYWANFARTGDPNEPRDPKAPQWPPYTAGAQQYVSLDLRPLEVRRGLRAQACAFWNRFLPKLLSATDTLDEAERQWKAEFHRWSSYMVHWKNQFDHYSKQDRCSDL

Nc1c2c(nc3ccccc13)CCCC2 [Tacrine, 9-amino-1,2,3,4-tetrahydroacridine, reference compound]
% of Animals with Scopolamine Induced Memory Deficit Reversal ([1]; 0.63 mg/kg of body weight): 13%

Oc1ccccc1C=Nc1c2c(nc3ccccc13)CCCC2 [9-Amino-N-[(2-hydroxyphenyl)methylene]-1,2,3,4-tetrahydroacridine, hemi-fumarate]
IC50 (acetylcholinesterase): 5100 nM

C(=Nc1c2c(nc3ccccc13)CCCC2)c1ccccc1 [N-Phenylmethylene-1,2,3,4-tetrahydro-9-acridinamine]
% of Animals with Scopolamine Induced Memory Deficit Reversal ([1]; 0.31 mg/kg of body weight): 27% | % of Animals with Scopolamine Induced Memory Deficit Reversal ([1]; 5.0 mg/kg of body weight): 60% | IC50 (acetylcholinesterase): 230 nM

CC[C@@H]1C(=O)OC[C@@H]1Cc1cncn1C [Pilocarpine, reference compound]
% of Animals with Scopolamine Induced Memory Deficit Reversal ([1]; 5.0 mg/kg of body weight): 13%
